Measurements as given in publication PMC9818267, “Brain Natriuretic Peptide Protects Cardiomyocytes from Apoptosis and Stimulates Their Cell Cycle Re-Entry in Mouse Infarcted Hearts” (Cells, 2022).
No end group written: not given here.

Experiments:
cardiomyocytes (CMs) = test: Cardiomyocyte isolation (Langendorff-Free method) and counting; type: in vivo, mouse
Procedure: BNP was injected into infarcted adults, and unmanipulated neonatal and adult mice. Directly after surgery, NaCl (saline) or BNP (1.3 µg/20 g in 20 µL) was injected into the left ventricle cavity. At 24 h after MI, mice were intraperitoneal (ip) injected with BNP (2 µg/20 g mice) or saline every 2 days. C57BL/6 mice were sacrificed 1- and 14 days post-MI and Myh6 MerCreMer mice were sacrificed 14 days post-MI (Figure 1A). Neonatal C57BL/6 mice (3 days after birth) were injected ip with NaCl or BNP every two days (1 µg/2 g; Bachem; synthetic mouse BNP (1–45) peptide (catalog number H-7558)). Mice were sacrificed 11 days after birth (Figure 1B). Eight week old C57 BL/6 mice or Myh6 MerCreMer unmanipulated mice were injected ip with BNP (2 µg/20 g mice) or NaCl every two days (Figure 1C). Two weeks after the first injection, mice were sacrificed. To assess for the implication of the ERK signaling pathway in the BNP effect on CMs, PD0325901 (60 µg/20 g mice in 80 µL) was administered by gavage in adult unmanipulated mice 1 h before BNP injection (2 µg/20 g mice).
CM isolations were performed thanks to the Langendorff-Free method. […] Thereafter, the heart was removed from the chest and the left ventricle was perfused with enzymatic solution containing collagenase II (120 U/mL), collagenase IV (120 U/mL) (Worthington, Biochemical Corporation, USA) and protease XIV (0.05 mg/mL or 0.175 U/mL) (Sigma-Aldrich, Merck, Darmstadt, Germany). In each experiment, a full digestion of the heart was obtained. After digestion, cardiac cells were dissociated by gentle pipetting, filtered and collected after 25 min sedimentation. For infarcted hearts, the tissue was separated into the three zones (ZI, BZ and RZ). The three different areas were weighted before gentle pipetting.
Total CM cell numbers were counted before sedimentation by two different people and in blinded experiments. The CMs were easily identified based on their size and on Troponin I expression (for all experiments with flow cytometry analysis). Round and rod-shaped CMs were counted and their numbers related to the heart, to the mg of tissue and also to the control hearts (saline-injected hearts) always performed in parallel the same day than BNP-treated hearts (i.e., with the same digestion buffer).

[1] = Infarct size by echocardiography; type: in vivo, mouse; conditions: two weeks after surgery
Excerpt: To assess for the reproducibility of LAD occlusion, we measured the infarct size by echocardiography analysis (% of the MI length long axis). Two weeks after surgery, the infarct area represented 37 ± 2.5% of the LV in saline injected mice (n = 10) and 31.5 ± 4% in BNP-treated mice (n = 7).

cleaved caspase-3 = test: Western blot cleaved caspase-3 in infarct zone; type: in vivo, mouse; conditions: ZI one day after MI, BNP vs saline
Excerpt: At sacrifice, mice were weighted, the heart excised and weighted. The apex was embedded into OCT and slowly frozen for immunohistochemistry analysis. For quantitative RT-PCR (qRT-PCR) and/or Western blot analysis, the rest of the heart was quickly frozen in N2. Hearts from infarcted animals were separated into 3 zones for molecular and cellular analysis including CM isolation: (1) the infarction zone (ZI), (2) the border zone (BZ) and (3) the remote zone (RZ). The different areas were processed under microscopy: the ZI area is easily detectable by the color and the presence of the suture, the BZ corresponds to 0.5 mm tissue around the ZI and the rest of the heart is the RZ.
Total proteins were extracted from CMs isolated from adult infarcted and unmanipulated neonatal and adult hearts. Proteins were transferred to nitrocellulose membranes (Biorad) before incubation with primary antibodies overnight at 4 °C. Secondary antibodies were added 1 h at RT in the dark (Supplementary File S1). The signal was detected and quantified with the Odyssey infrared imaging system (LI-COR. Biosciences, Bad Homburg, Germany). All results were normalized to the tubulin protein level or to the total protein level thanks to stainings with the Revert 700 Total protein Stain (LI-COR).

caspase 3+ CMs = test: Immunostaining of caspase 3+ CMs in infarcted area; type: in vivo, mouse; conditions: infarcted area 1 day after MI, BNP vs saline
Procedure: Cells or OCT heart sections (5 µm-thick cryosections) were washed in PBS 1X and fixed in paraformaldehyde (2%) or formol (4%) for 10 min at RT. After 10 min of permeabilization (0.3% Triton x-100 in PBS) and one hour of blocking with normal serum, sections were probed with primary antibodies overnight at 4 °C (Supplementary File S1). The second day, the secondary antibody was added on cells or heart sections. Slides were mounted with Dabco (Sigma) and pictures were captured with Nikon Eclipse TS100 or 90i microscope. Images were processed with Adobe Photoshop CC2015.

cGMP = conditions: BNP-treated infarcted mice, cited from earlier work
Procedure: In previous work, we followed the BNP kinetic by measuring the cGMP level in the hearts and plasma of BNP-treated infarcted mice. 30 min after BNP injections, the cGMP level is increased in the hearts of treated mice and returns to normal 1 h after injection. In the circulation of treated mice, cGMP level is increased from 1 h to 24 h after ...

## Brain Natriuretic Peptide (SQGSTLRVQQRPQNSKVTHISSCFGHKIDRIGSVSRLGCNALKLL; not fully specified; ends and bridges not checked; UniProt P40753 77-121, looked up) [BNP, synthetic mouse BNP (1–45) peptide (Bachem, catalog number H-7558)]
Cardiomyocytes (CMs); BZ and RZ of infarcted hearts, BNP vs saline
  CM number per mg tissue: No change
Cardiomyocytes (CMs); BZ or RZ of infarcted hearts, BNP vs saline
  CM cell number per heart: No increase
Cardiomyocytes (CMs); ZI of infarcted hearts, BNP vs saline
  increase of number of CMs per mg tissue: 2 fold
Cardiomyocytes (CMs); ZI of infarcted hearts, same-day isolation with same enzymatic cocktail
  increase of number of CMs related to saline-injected littermates: 2.2 fold
Cardiomyocytes (CMs); infarct area (ZI) of infarcted adult hearts, BNP 2 µg/20 g ip every 2 days, vs saline
  increase of total number of CMs per heart: 81%
Cardiomyocytes (CMs); unmanipulated adult NPR-A −/− mice, saline n = 4, BNP n = 3
  CM cell number in NPR-A deficient hearts: did not change
Cardiomyocytes (CMs); unmanipulated adult hearts
  increase of number of CMs related to saline-injected littermates: 28.5%
Cardiomyocytes (CMs); unmanipulated adult hearts, BNP 2 µg/20 g ip every 2 days for 2 weeks, vs saline
  increase of total number of CMs per heart: 19%
Cardiomyocytes (CMs); unmanipulated adult hearts, BNP vs saline
  increase of number of CMs per mg tissue: 26%
Cardiomyocytes (CMs); unmanipulated adult mice, PD0325901 (60 µg/20 g) 1 h before each BNP injection, 2 weeks, n = 5 per group
  number of CMs in the presence of ERK inhibitor: did not increase
Cardiomyocytes (CMs); unmanipulated neonatal hearts
  increase of number of CMs related to saline-injected littermates: 23%
Cardiomyocytes (CMs); unmanipulated neonatal hearts, BNP 1 µg/2 g ip every 2 days from day 3, sacrifice day 11, vs saline
  increase of total number of CMs per heart: 18%
Cardiomyocytes (CMs); unmanipulated neonatal hearts, BNP vs saline
  increase of number of CMs per mg tissue: 44%
[1]; BNP vs saline
  reduction of infarct size: 15%
[1]; BNP-treated n = 7, saline 37 ± 2.5% (n = 10)
  infarct area as % of the LV (% of the MI length long axis): 31.5 ± 4%
Cleaved caspase-3
  caspase 3 protein level change: −42%
Caspase 3+ CMs
  number of caspase 3+ CMs change: −13%
cGMP; 30 min after injection, returns to normal 1 h after injection
  cGMP level in the hearts: increased
cGMP; from 1 h to 24 h after injections
  cGMP level in the circulation: increased
